From US12194080B2, “Methods for identification, assessment, prevention, and treatment of metabolic disorders using PM20D1 and N-lipidated amino acids” (Dana-Farber Cancer Institute, Inc., priority 2015, dated 2025)

Columns and labels:
[1] = tested on: Diet induced obese (DIO) mice; test: Indirect calorimetry (CLAMS) of high fat diet/DIO mice treated with N-acyl amino acids; type: in vivo, mouse; settings: daily i.p.: C18:1-Leu 25, C18:1-Phe 30, C20:4-Gly 15 mg/kg/day
Protocol: (§1) Animal experiments were performed according to procedures approved by the Beth Israel Deaconess Medical Center IACUC. Mice were maintained in 12 h light-dark cycles at 22° C. and fed a standard irradiated rodent chow diet. All experiments on wild-type mice were performed with male C57BL/6 mice purchased from Jackson Laboratories, except for the AAV experiments, which were performed with male C57BL/6 mice from Charles River. UCP1-KO (stock #017476) and 16-20 week DIO mice (stock #380050) were obtained from Jackson Laboratories. For AAV injection experiments, mice were gently warmed using a 250 W clear infrared heat lamp, immobilized, and injected via tail vein with 10^10 virus/mouse (diluted in saline) in a total volume of 100 μl/mouse. Where indicated, mice were placed on high-fat diet (60% fat, Research Diets). For cold exposure experiments, mice were group housed and placed at 4° C. for the indicated times. For the preparation of C18:1-Phe for in vivo injections, compounds were dissolved in 18:1:1 v/v/v saline:Kolliphor® EL (Sigma Aldrich):DMSO and sonicated until homogeneous. Mice were administered compounds at 5 μl/g body weight at the indicated doses. For all injection experiments, mice were mock injected with saline daily for 3 days prior to the start of the experiments. For glucose tolerance tests (GTTs), mice received their final dose of compound the day prior to the assay and were then fasted overnight. Glucose was administered at 1.5 g/kg.
(§2) Energy expenditure, O2 consumption, CO2 production, respiratory exchange ratio, total locomotor activity, and food intake measurements were made with a 16-cage Columbus Instruments Oxymax Comprehensive Lab Animal Monitoring System (CLAMS) at ambient room temperature (21-23° C.). Mice were acclimated for one day in metabolic cages prior to data collection. Whole-body composition was assessed with an EchoMRI™ 3-in-1 on conscious mice.

[2] = tested on: differentiated primary iWAT cells; test: Cellular oxygen consumption rate (Seahorse XF24), differentiated primary iWAT adipocytes; type: cell-based, mouse; settings: 50 μM, in presence of oligomycin (1 μM)
Protocol: C2C12, U2O5, and 293A cells were cultured in DMEM with 10% FBS and pen/strep. Primary inguinal (iWAT) and brown (BAT) adipocytes were obtained as follows. The stromal-vascular fraction of inguinal (iWAT) pad from 4-12 week old male mice was dissected, minced, and digested for 45 min. at 37° C. in PBS containing 10 mM CaCl2, 2.4 U/ml dispase II (Roche), and 1.5 U/ml collagenase D (Roche). The stromal-vascular fraction of brown fat (BAT) pads from newborn (P1-P14) pups was dissected, minced, and digested for 45 min at 37° C. in PBS containing 1.3 mM CaCl2, 120 mM NaCl, 5 mM KCl, 5 mM glucose, 100 mM HEPES, 4% BSA, and 1.5 mg/ml collagenase B (Roche). Digested tissue was diluted with adipocyte culture media (DMEM/F-12, GlutaMAX™ supplement, Life Technologies, with 10% FBS and pen/strep) and centrifuged (600×g for 10 min.). The pellet was resuspended in 10 ml adipocyte culture media, strained through a 40 μm filter, and plated. Differentiation was induced by application of an adipogenic cocktail containing 5 μg/ml insulin (Sigma), 5 μM dexamethasone (Sigma), 250 μM isobutylmethylxanthine (Sigma), and 1 μM rosiglitazone (Cayman) for 2 days. Two days after induction, cells were maintained in adipocyte culture media containing 5 μg/ml insulin and 1 μM rosiglitazone.
(§3) Cellular oxygen consumption rates were determined using an XF24 Extracellular Flux Analyzer (Seahorse Biosciences). Oligomycin was purchased from EMD Millipore, and FCCP and rotenone were purchased from Sigma. C2C12 or U2OS cells were seeded at 30,000 or 50,000 cells/well, respectively in an XF24 cell culture microplate (V7-PS, Seahorse Bioscience) and analyzed the following day. Primary iWAT or BAT adipocytes were seeded at 15,000 cells/well, differentiation was induced the following day as described, and the cells were analyzed on day 5. On the day of analysis, the cells were washed once with Seahorse respiration buffer (8.3 g/1 DMEM, 1.8 g/l NaCl, 1 mM pyruvate, 20 mM glucose, pen/strep), placed in 0.5 ml Seahorse respiration buffer, and incubated in a CO2-free incubator for 1 hr. Port injection solutions were prepared as follows (final concentrations in assay in parentheses): 10 μM oligomycin (1 μM final), […] amino acid (50 μM final), 2 μM FCCP (0.2 μM final), and 30 μM rotenone (3 μM final). The Seahorse program was run as follows: basal measurement, 3 cycles; inject port A (oligomycin), 3 cycles; inject port B (compounds), 8 cycles; inject port C (FCCP), 3 cycles; inject port D (rotenone), 3 cycles. Each cycle consisted of mix 4 min, wait 0 min, and measure 2 min. For data expressed as a percentage of oligomycin-treated basal, the respiration at cycle 6 was normalized to 100%, and the maximum respiration at any time point between cycles 7 and 15 inclusive was used.

[3] = Plasma AST, ALT and cytokine array after chronic treatment of DIO mice; type: in vivo, mouse; settings: 9 days chronic treatment, versus vehicle
Protocol: FIG. 14 includes 11 panels, identified as panels A, B, C, D, E, F, G, H, I, J, and K, which show the effects of chronic C20:4-Gly administration to mice. Panels A-F show the change in body weight (Panel A), daily and cumulative food intake (Panels B and C), and total body weight at day 7 (Panel D), VO2 (Panel E), and movement (Panel F) of 14 week DIO mice treated daily with vehicle or C20:4-Gly (20 mg/kg/day, i.p.). For Panels E and F, measurements were recorded for 2 days following 7 days chronic treatment with vehicle or C20:4-Gly (20 mg/kg/day, i.p.); during this time daily administration of the indicated compounds continued. […] Panels G-J show plasma AST (Panel G), ALT (Panel H), and plasma cytokine array profiling (Panels I and J) following 9 days chronic treatment with vehicle or C20:4-Gly (20 mg/kg/day, i.p.). For Panels G-J, plasma was collected 24 hr following the last dose of vehicle or C20:4-Gly. For Panels A-H, n=8/group, mean±SEM, *p<0.05, **p<0.01. For Panels I and J, plasma from 4 mice/group were pooled for each array.

[4] = tested on: Diet induced obese (DIO) mice; test: Chronic daily i.p. administration of N-acyl amino acids to DIO mice (body weight, food intake, body composition, GTT); type: in vivo, mouse; settings: chronic treatment, C18:1-Phe 30 or 50 mg/kg/day, C20:4-Gly 15 mg/kg/day, i.p.
Protocol: as §1, §2

[5] = tested on: primary inguinal fat cells, primary BAT cells, C2C12 cells, and U2OS cells; test: Uncoupled respiration cellular assays (variety of cell types); type: cell-based; settings: N-acyl amino acids at 10-100 uM
Protocol: as §3

C2C12 cells = test: Mitochondrial membrane potential by TMRM fluorescence; type: cell-based, mouse; settings: 20 min
Protocol: Mitochondrial membrane potential was measured using tetramethylrhodamine methyl ester (TMRM, Life Technologies) fluorescence. C2C12 cells were plated in 6-well plates and grown to 80-90% confluence. Cells were then washed once with PBS and switched into Seahorse respiration buffer with the indicated compounds at the indicated concentrations: TMRM (100 nM), oligomycin (1 μM), FCCP (0.4 μM), and C18:1-Phe (10 or 50 μM). After 20 min. incubation at 37° C., the media was aspirated, cells were washed once with PBS, and trypsinized. Trypsinized cells were directly resuspended in PBS (total volume 300 μl), stored on ice, and analyzed on a FACSCanto™ II (BD Biosciences) with 20,000 events per sample.

## CCCCC/C=C\C/C=C\C/C=C\C/C=C\CCCC(=O)NCC(=O)O [C20:4-Gly, N-arachidonoyl glycine]
[1]
  VO2: significantly augmented
  movement: no effects
[2]
  maximal OCR versus DMSO at the same time point: 285%
  maximal OCR versus oligomycin-treated basal respiration: 295%
[3]
  plasma ALT: no sigificant elevations
  plasma AST: no sigificant elevations
  plasma cytokines: no sigificant elevations
[4]
  food intake: reduced food intake
[5]
  uncoupled respiration in cells: increased uncoupled respiration

## N#CC(C#N)=NNc1ccc(OC(F)(F)F)cc1 [FCCP]
C2C12 cells; co-treatment with oligomycin 1 μM, C18:1-Phe 50 μM, FCCP 0.4 μM
  decrease of TMRM fluorescence: ~70%

## CC[C@H]1/C=C/C=C/C[C@@H](C)[C@H](O)[C@@](C)(O)C(=O)[C@@H](C)[C@H](O)[C@@H](C)C(=O)[C@@H](C)[C@H](O)[C@@H](C)/C=C/C(=O)O[C@@H]2[C@H](C)[C@H](CC1)O[C@]1(CC[C@H](C)[C@H](C[C@@H](C)O)O1)[C@H]2C [oligomycin]
C2C12 cells; TMRM fluorescence
  mitochondrial membrane potential: increased the membrane potential
